Reference: patent publication US20150105252A1, “SUBSTITUTED PYRAZOLES AS HERBICIDES” (E I DU PONT DE NEMOURS AND COMPANY, priority 2013, published 2015)

Assays:
[1] = system: lambsquarters; test: Test C preemergence; assay type: in vivo, Chenopodium album; conditions: for Lambsquarters plant response rating: scale 0 to 100 (0 no effect, 100 complete control)
Method in brief: (§1)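 Pre- and postemergence greenhouse screen; vehicle was a non-phytotoxic solvent mix with surfactant. Preemergence: treatment applied right after sowing into loam and sand. Postemergence: treated at 1–4 leaves. Visual rating at 13–15 days, 100 = complete control.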

[2] = system: blackgrass; test: Test C postemergence; assay type: in vivo, Alopecurus myosuroides
Method in brief: as §1

[3] = system: ryegrass, Italian; test: Test C postemergence; assay type: in vivo, Lolium multiflorum
Method in brief: as §1

[4] = system: galium; test: Test C postemergence; assay type: in vivo, Galium aparine
Method in brief: as §1

[5] = system: crabgrass, large; test: Test C postemergence; assay type: in vivo, Digitaria sanguinalis
Method in brief: as §1

[6] = system: foxtail, giant; test: Test C postemergence; assay type: in vivo, Setaria faberii
Method in brief: as §1

[7] = system: lambsquarters; test: Test C postemergence; assay type: in vivo, Chenopodium album
Method in brief: as §1

[8] = system: morningglory; test: Test C postemergence; assay type: in vivo, Ipomoea coccinea
Method in brief: as §1

[9] = system: nutsedge, yellow; test: Test C postemergence; assay type: in vivo, Cyperus esculentus
Method in brief: as §1

[10] = system: barnyardgrass; test: Test C postemergence; assay type: in vivo, Echinochloa crus-galli
Method in brief: as §1

[11] = system: oilseed rape; test: Test C postemergence; assay type: in vivo, Brassica napus
Method in brief: as §1

[12] = system: waterhemp; test: Test C postemergence; assay type: in vivo, Amaranthus rudis
Method in brief: as §1

[13] = system: oat, wild; test: Test C postemergence; assay type: in vivo, Avena fatua
Method in brief: as §1

[14] = system: kochia; test: Test C postemergence; assay type: in vivo, Kochia scoparia
Method in brief: as §1

[15] = system: velvetleaf; test: Test C postemergence; assay type: in vivo, Abutilon theophrasti
Method in brief: as §1

[16] = Postemergence, 31 g ai/ha, visually evaluated after 13 to 15 days
[17] = postemergence, 62 g ai/ha, scale 0 to 100
[18] = postemergence, 250 g ai/ha, scale 0 to 100 (0 no effect, 100 complete control)
[19] = postemergence, 125 g ai/ha, scale 0 to 100, 0 no effect, 100 complete control

Q: Which results are given for CCNC(=O)c1cc(CC)n(Cc2ccnc(OC(F)F)c2)n1 [Compound 130]?
A: Plant response rating (scale of 0 to 100), Lambsquarters ([1]; Preemergence, 250 g ai/ha): 98; Lambsquarters plant response rating ([1]; preemergence, 31 g ai/ha, visual rating, 13 to 15 days): 85; Lambsquarters plant response rating ([1]; preemergence, 62 g ai/ha, 13 to 15 days): 100; Plant response rating, Lambsquarters ([1]; preemergence, 125 g ai/ha, 13 to 15 days, scale 0 to 100, 0 = no effect, 100 = complete control): 100; Plant response rating (scale of 0 to 100 where 0 is no effect and 100 is complete control), Blackgrass [2, 16]: 5; Blackgrass plant response rating [2, 17]: 5; Plant response rating, Blackgrass [2, 18]: 10; Plant response rating, Blackgrass [2, 19]: 10; Plant response rating (scale of 0 to 100 where 0 is no effect and 100 is complete control), Ryegrass, Italian [3, 16]: 5; Ryegrass, Italian plant response rating [3, 17]: 5; Plant response rating, Ryegrass, Italian [3, 18]: 15; Plant response rating, Ryegrass, Italian [3, 19]: 10; Plant response rating (scale of 0 to 100 where 0 is no effect and 100 is complete control), Galium [4, 16]: 60; Galium plant response rating [4, 17]: 65; Plant response rating, Galium [4, 18]: 75; Plant response rating, Galium [4, 19]: 65; Plant response rating (scale of 0 to 100 where 0 is no effect and 100 is complete control), Crabgrass, Large [5, 16]: 5; Crabgrass, Large plant response rating [5, 17]: 5; Plant response rating, Crabgrass, Large [5, 18]: 25; Plant response rating, Crabgrass, Large [5, 19]: 10; Plant response rating (scale of 0 to 100 where 0 is no effect and 100 is complete control), Foxtail, Giant [6, 16]: 40; Foxtail, Giant plant response rating [6, 17]: 15; Plant response rating, Foxtail, Giant [6, 18]: 55; Plant response rating, Foxtail, Giant [6, 19]: 20; Plant response rating (scale of 0 to 100 where 0 is no effect and 100 is complete control), Lambsquarters [7, 16]: 25; Lambsquarters plant response rating [7, 17]: 30; Plant response rating, Lambsquarters [7, 18]: 75; Plant response rating, Lambsquarters [7, 19]: 65; Plant response rating (scale of 0 to 100 where 0 is no effect and 100 is complete control), Morningglory [8, 16]: 35; Morningglory plant response rating [8, 17]: 75; Plant response rating, Morningglory [8, 18]: 98; Plant response rating, Morningglory [8, 19]: 85; Plant response rating (scale of 0 to 100 where 0 is no effect and 100 is complete control), Nutsedge, Yellow [9, 16]: 0; Nutsedge, Yellow plant response rating [9, 17]: 5; Plant response rating, Nutsedge, Yellow [9, 18]: 10; Plant response rating, Nutsedge, Yellow [9, 19]: 5; Plant response rating (scale of 0 to 100 where 0 is no effect and 100 is complete control), Barnyardgrass [10, 16]: 5; Barnyardgrass plant response rating [10, 17]: 5; Plant response rating, Barnyardgrass [10, 18]: 10; Plant response rating, Barnyardgrass [10, 19]: 5; Plant response rating (scale of 0 to 100 where 0 is no effect and 100 is complete control), Oilseed Rape [11, 16]: 35; Oilseed Rape plant response rating [11, 17]: 40; Plant response rating, Oilseed Rape [11, 18]: 60; Plant response rating, Oilseed Rape [11, 19]: 55; Plant response rating (scale of 0 to 100 where 0 is no effect and 100 is complete control), Waterhemp [12, 16]: 30; Waterhemp plant response rating [12, 17]: 55; Plant response rating, Waterhemp [12, 18]: 80; Plant response rating, Waterhemp [12, 19]: 70; Plant response rating (scale of 0 to 100 where 0 is no effect and 100 is complete control), Oat, Wild [13, 16]: 5; Oat, Wild plant response rating [13, 17]: 10; Plant response rating, Oat, Wild [13, 18]: 15; Plant response rating, Oat, Wild [13, 19]: 15; Plant response rating (scale of 0 to 100 where 0 is no effect and 100 is complete control), Kochia [14, 16]: 65; Kochia plant response rating [14, 17]: 75; Plant response rating, Kochia [14, 18]: 90; Plant response rating, Kochia [14, 19]: 90; Plant response rating (scale of 0 to 100 where 0 is no effect and 100 is complete control), Velvetleaf [15, 16]: 5; Velvetleaf plant response rating [15, 17]: 10; Plant response rating, Velvetleaf [15, 18]: 60; Plant response rating, Velvetleaf [15, 19]: 50
